Holding throughout (format): binding
The target of one assay is T1, ERBB3 (Homo sapiens, UniProt P21860).
T1 construct: purchased Ambit Biosciences (scanMAXX KINOMEscan)
Briefly: KINOMEscan, ERBB3. As to conditions: for remaining binding at 1 µM / remaining binding at 10 µM: ERBB3; for remaining binding at 1 µM: read-out: % of control at 1 µM; for remaining binding at 10 µM: read-out: % of control at 10 µM.

The target in another assay is T2, PIK3C2B (Homo sapiens, UniProt O00750).
T2 construct: purchased Ambit Biosciences (scanMAXX KINOMEscan)
T2 sequence (O00750 whole entry): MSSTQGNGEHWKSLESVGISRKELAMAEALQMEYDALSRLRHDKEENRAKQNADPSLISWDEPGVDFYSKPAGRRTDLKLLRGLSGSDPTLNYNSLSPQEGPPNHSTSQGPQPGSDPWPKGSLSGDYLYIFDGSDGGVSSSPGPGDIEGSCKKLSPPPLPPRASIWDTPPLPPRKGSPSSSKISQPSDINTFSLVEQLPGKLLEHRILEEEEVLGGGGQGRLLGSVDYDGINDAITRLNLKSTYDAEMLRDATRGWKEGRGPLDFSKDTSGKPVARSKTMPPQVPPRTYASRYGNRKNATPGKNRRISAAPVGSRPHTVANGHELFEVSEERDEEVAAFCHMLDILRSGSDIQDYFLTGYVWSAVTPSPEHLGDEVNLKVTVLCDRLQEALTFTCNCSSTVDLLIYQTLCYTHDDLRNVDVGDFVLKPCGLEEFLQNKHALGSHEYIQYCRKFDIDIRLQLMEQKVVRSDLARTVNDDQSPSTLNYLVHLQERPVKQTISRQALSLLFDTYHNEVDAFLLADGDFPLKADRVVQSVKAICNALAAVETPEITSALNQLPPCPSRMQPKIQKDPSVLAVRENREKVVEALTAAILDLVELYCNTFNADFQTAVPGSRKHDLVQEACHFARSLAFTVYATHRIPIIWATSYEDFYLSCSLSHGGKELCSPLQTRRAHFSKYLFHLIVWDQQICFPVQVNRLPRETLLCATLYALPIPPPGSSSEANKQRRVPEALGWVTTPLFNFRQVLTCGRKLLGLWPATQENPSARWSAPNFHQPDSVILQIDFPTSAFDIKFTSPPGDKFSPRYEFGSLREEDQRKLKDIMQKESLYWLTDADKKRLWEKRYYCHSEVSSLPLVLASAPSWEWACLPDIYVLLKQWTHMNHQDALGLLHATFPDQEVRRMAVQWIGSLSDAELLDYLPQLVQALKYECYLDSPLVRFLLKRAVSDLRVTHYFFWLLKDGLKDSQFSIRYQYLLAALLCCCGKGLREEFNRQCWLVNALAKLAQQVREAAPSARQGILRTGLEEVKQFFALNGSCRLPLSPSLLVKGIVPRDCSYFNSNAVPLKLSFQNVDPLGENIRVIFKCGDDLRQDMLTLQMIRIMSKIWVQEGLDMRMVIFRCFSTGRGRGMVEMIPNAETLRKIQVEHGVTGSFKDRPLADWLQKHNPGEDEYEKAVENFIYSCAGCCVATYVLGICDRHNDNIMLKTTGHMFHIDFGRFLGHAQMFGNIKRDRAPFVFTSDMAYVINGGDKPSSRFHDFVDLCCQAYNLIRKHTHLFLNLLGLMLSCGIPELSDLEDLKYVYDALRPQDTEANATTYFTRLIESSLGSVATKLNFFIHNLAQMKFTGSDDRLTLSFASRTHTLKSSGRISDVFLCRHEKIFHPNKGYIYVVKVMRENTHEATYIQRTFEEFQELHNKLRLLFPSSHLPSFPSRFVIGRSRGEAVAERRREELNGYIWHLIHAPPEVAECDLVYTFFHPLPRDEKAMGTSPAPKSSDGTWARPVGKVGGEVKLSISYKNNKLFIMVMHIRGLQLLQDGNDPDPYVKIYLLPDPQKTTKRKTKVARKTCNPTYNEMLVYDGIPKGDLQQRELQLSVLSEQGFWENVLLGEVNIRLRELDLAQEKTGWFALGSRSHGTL
Briefly: KINOMEscan, PIK3C2B. As to conditions: for remaining binding at 1 µM / remaining binding at 10 µM: kinase PIK3C2B; for remaining binding at 1 µM: read-out: % of control at 1 µM; for remaining binding at 10 µM: read-out: % of control at 10 µM.

Assay [1] concerns the target T3, panel of 442 kinases (Homo sapiens, UniProt O75460).
T3 construct: purchased Ambit Biosciences (scanMAXX KINOMEscan)
The assay can be described thus: biochemical. As to conditions: ERN1; for remaining activity at 1 µM: read-out: % of control at 1 µM.

Assay [2] concerns the target T4, panel of 442 kinases (Homo sapiens, UniProt P08581, M1250T).
T4 construct: purchased Ambit Biosciences (scanMAXX KINOMEscan)
The assay can be described thus: biochemical. The settings on record: kinase MET(M1250T); for remaining activity at 1 µM: read-out: % of control at 1 µM.

The target in assay [3] is T5, panel of 442 kinases (Homo sapiens, UniProt Q9NY57).
T5 construct: purchased Ambit Biosciences (scanMAXX KINOMEscan)
T5 sequence (Q9NY57 whole entry): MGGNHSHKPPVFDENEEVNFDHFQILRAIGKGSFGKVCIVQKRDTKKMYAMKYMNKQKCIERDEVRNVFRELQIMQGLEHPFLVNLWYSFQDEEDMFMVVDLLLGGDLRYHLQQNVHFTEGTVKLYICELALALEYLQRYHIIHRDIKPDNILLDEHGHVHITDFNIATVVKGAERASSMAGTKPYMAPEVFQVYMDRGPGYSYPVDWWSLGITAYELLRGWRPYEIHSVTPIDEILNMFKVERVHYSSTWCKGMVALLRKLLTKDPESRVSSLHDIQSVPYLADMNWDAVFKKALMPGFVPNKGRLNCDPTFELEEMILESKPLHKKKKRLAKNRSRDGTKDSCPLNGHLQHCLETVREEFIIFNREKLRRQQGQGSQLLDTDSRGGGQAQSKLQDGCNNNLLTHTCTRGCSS
Briefly: biochemical. As to conditions: kinase YANK2; for remaining activity at 1 µM: read-out: YANK2 (% of control at 1 µM).

The target in assay [4] is T6, panel of 442 kinases (Homo sapiens, UniProt Q9UEW8).
T6 construct: purchased Ambit Biosciences (scanMAXX KINOMEscan)
Briefly: biochemical. The settings on record: kinase STK39; for remaining activity at 1 µM: read-out: STK39 (% of control at 1 µM).

Assay [5] addresses T7, panel of 442 kinases (Homo sapiens, UniProt P49840).
T7 construct: purchased Ambit Biosciences (scanMAXX KINOMEscan)
Briefly: biochemical. The settings on record: kinase GSK3A; for remaining activity at 1 µM: read-out: % of control at 1 µM.

The target in assay [6] is T8, panel of 442 kinases (Homo sapiens, UniProt P57058).
T8 construct: purchased Ambit Biosciences (scanMAXX KINOMEscan)
T8 sequence (P57058 1-714): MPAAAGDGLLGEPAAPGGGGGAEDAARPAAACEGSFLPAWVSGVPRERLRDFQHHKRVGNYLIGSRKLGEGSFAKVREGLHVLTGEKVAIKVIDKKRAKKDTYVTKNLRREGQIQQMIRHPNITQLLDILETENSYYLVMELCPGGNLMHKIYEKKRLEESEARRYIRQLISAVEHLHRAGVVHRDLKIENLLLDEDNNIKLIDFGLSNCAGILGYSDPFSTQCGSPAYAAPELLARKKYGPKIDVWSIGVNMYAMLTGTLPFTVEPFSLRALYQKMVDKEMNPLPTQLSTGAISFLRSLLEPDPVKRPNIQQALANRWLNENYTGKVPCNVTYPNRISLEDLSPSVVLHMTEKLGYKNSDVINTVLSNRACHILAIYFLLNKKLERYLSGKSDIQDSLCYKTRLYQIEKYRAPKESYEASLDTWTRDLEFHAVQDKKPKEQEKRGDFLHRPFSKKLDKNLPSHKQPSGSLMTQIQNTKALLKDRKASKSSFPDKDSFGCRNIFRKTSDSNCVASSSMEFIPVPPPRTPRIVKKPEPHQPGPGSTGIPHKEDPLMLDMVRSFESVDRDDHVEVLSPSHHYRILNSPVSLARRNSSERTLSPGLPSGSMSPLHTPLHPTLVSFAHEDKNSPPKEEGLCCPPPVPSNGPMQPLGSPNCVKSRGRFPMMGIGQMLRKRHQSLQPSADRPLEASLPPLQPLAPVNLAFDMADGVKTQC
Briefly: biochemical. As to conditions: kinase HUNK; for remaining activity at 1 µM: read-out: % of control at 1 µM.

Assay [7] deals with T9, panel of 442 kinases (Homo sapiens, UniProt P41240).
T9 construct: purchased Ambit Biosciences (scanMAXX KINOMEscan)
T9 sequence (P41240 whole entry): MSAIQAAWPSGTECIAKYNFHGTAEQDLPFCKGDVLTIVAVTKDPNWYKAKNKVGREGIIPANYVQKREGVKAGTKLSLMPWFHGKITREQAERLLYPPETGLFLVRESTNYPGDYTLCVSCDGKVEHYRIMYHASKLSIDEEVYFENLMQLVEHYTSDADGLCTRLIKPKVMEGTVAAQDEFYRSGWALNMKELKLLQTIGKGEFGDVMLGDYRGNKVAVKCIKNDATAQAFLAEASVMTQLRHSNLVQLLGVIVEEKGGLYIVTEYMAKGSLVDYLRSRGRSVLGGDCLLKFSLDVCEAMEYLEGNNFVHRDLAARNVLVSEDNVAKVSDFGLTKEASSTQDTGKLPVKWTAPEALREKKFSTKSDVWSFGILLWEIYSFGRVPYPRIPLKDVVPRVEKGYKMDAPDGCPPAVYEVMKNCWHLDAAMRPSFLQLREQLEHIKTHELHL
Briefly: biochemical. As to conditions: CSK; for remaining activity at 1 µM: read-out: % of control at 1 µM.

Assay [8] has as its target T10, panel of 442 kinases (Homo sapiens, UniProt Q04759).
T10 construct: purchased Ambit Biosciences (scanMAXX KINOMEscan)
Briefly: biochemical. The settings on record: kinase PRKCQ; for remaining activity at 1 µM: read-out: PRKCQ (% of control at 1 µM).

The target in assay [9] is T11, panel of 442 kinases (Homo sapiens, UniProt P54764).
T11 construct: purchased Ambit Biosciences (scanMAXX KINOMEscan)
T11 sequence (P54764 20-986): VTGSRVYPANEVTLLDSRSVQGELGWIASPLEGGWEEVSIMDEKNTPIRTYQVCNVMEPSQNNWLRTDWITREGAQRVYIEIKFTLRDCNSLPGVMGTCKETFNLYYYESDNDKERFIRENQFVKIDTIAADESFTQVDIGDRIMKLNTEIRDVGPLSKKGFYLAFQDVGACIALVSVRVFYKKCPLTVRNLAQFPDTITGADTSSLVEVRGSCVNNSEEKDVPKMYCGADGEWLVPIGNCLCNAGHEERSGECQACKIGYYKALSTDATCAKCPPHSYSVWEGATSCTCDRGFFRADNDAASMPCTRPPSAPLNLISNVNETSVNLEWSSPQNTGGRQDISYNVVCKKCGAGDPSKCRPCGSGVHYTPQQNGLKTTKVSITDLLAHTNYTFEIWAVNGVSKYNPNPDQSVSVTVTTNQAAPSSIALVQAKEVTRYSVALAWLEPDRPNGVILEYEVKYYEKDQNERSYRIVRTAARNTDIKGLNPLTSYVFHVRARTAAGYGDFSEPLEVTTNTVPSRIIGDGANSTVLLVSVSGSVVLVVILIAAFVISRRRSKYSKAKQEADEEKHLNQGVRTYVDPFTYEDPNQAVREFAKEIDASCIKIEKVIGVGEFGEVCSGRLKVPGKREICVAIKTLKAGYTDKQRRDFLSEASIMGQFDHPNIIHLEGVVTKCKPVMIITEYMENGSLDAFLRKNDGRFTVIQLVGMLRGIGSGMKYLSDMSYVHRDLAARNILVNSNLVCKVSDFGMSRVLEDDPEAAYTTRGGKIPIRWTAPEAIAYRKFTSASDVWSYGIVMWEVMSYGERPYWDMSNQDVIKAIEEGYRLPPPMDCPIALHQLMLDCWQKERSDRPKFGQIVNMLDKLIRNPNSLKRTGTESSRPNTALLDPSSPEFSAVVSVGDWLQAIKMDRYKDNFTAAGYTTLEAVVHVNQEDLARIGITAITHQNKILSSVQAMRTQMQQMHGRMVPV
Briefly: biochemical. The settings on record: EPHA4; for remaining activity at 1 µM: read-out: % of control at 1 µM.

Assay [10] deals with T12, panel of 442 kinases (Homo sapiens, UniProt P49137).
T12 construct: purchased Ambit Biosciences (scanMAXX KINOMEscan)
The assay can be described thus: biochemical. As to conditions: kinase MAPKAPK2; for remaining activity at 1 µM: read-out: % of control at 1 µM.

In assay [11] the target is T13, panel of 442 kinases (Homo sapiens, UniProt Q9P289).
T13 construct: purchased Ambit Biosciences (scanMAXX KINOMEscan)
T13 sequence (Q9P289 whole entry): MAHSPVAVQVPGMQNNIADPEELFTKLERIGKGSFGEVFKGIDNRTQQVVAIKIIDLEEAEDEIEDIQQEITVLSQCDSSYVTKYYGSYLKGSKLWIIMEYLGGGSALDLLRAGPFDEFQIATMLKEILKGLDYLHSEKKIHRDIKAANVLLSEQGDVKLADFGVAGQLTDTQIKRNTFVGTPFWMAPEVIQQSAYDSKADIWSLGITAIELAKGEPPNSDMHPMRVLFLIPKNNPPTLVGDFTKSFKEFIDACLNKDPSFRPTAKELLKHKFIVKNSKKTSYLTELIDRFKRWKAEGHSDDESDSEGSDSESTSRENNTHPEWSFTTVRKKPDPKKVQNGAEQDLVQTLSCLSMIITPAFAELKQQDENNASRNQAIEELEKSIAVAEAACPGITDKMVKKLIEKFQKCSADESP
The assay can be described thus: biochemical. As to conditions: kinase MST4; for remaining activity at 1 µM: read-out: % of control at 1 µM.

Assay [12] concerns the target T14, panel of 442 kinases (Homo sapiens, UniProt O95747).
T14 construct: purchased Ambit Biosciences (scanMAXX KINOMEscan)
Briefly: biochemical. As to conditions: kinase OSR1; for remaining activity at 1 µM: read-out: % of control at 1 µM.

Assay [13] deals with T15, panel of 442 kinases (Homo sapiens, UniProt P07332).
T15 construct: purchased Ambit Biosciences (scanMAXX KINOMEscan)
The assay can be described thus: biochemical. The settings on record: FES; for remaining activity at 1 µM: read-out: % of control at 1 µM.

Assay [14] deals with T16, panel of 442 kinases (Homo sapiens, UniProt P53667).
T16 construct: purchased Ambit Biosciences (scanMAXX KINOMEscan)
Briefly: biochemical. The settings on record: kinase LIMK1; for remaining activity at 1 µM: read-out: % of control at 1 µM.

Assay [15] has as its target T17, catalytic JH1 domain of JAK1 (Homo sapiens, UniProt P23458).
T17 construct: the catalytic JH1 domains of JAK1 and JAK2; purchased Ambit Biosciences (scanMAXX KINOMEscan)
Briefly: KINOMEscan, JAK1 JH1 domain. The settings on record: for remaining binding at 1 µM / remaining binding at 10 µM: kinase JAK1(JH1domain-catalytic); for remaining binding at 1 µM: read-out: % of control at 1 µM; for remaining binding at 10 µM: read-out: % of control at 10 µM.

[16] abbreviates: 10 µM, read-out: % of control at 10 µM.

T3 sequence (O75460 19-977): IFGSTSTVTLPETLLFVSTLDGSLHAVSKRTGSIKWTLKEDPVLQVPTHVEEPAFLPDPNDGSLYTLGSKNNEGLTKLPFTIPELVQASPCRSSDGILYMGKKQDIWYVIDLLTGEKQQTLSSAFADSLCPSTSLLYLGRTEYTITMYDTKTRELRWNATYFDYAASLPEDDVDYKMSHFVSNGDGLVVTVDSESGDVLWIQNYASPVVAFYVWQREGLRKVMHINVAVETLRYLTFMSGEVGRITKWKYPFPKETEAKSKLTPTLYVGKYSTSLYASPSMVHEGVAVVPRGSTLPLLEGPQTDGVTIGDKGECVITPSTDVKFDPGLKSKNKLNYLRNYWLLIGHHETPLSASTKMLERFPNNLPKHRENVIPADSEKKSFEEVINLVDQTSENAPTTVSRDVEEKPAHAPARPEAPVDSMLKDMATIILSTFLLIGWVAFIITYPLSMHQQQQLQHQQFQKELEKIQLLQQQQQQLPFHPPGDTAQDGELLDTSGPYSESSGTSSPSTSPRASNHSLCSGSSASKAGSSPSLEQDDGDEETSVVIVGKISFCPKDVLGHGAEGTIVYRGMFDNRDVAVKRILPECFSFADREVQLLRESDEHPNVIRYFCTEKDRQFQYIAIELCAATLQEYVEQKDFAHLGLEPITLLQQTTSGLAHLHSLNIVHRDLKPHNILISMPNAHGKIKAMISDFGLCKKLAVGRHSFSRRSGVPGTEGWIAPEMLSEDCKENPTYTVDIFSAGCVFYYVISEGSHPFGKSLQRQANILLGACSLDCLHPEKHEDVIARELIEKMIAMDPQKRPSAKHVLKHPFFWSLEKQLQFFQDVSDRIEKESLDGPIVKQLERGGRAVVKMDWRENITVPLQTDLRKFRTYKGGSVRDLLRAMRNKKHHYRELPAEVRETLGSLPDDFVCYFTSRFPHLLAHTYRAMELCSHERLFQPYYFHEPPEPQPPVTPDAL

Take `Nc1cc(C(F)(F)F)c(-c2cc(N3CCOCC3)nc(N3CCOCC3)n2)cn1` [Buparlisib]: the figures for the remaining binding at 1 µM (on ERBB3; at PIK3C2B; in assay [15]) were 100%, 97% and 96%, respectively. Further, the remaining binding at 10 µM at ERBB3 was 90%; on PIK3C2B it was 100%; in [15], 100%. Besides, the remaining activity at 1 µM on panel of 442 kinases [1] worked out at 100%; on panel of 442 kinases [2] it was 92%; at panel of 442 kinases [3], 100%; at panel of 442 kinases [4], 93%; on panel of 442 kinases [5], 93%; at panel of 442 kinases [6], 100%. Also, the remaining activity at 1 µM at panel of 442 kinases [7] stood at 94%; at panel of 442 kinases [8] it was 91%; at panel of 442 kinases [9], 98%; on panel of 442 kinases [10], 100%; on panel of 442 kinases [11] it was 100%; on panel of 442 kinases [12] it was 97%. Besides, the remaining activity at 1 µM at panel of 442 kinases [13] and at panel of 442 kinases [14] was 100% each time. For the same compound, the remaining activity at 10 µM at panel of 442 kinases [1] (setting [16]) stood at 100%; on panel of 442 kinases [2] (setting [16]) it was 100%; on panel of 442 kinases [3] (10 µM, read-out: YANK2 (% of control at 10 µM)), 100%; on panel of 442 kinases [4] (10 µM, read-out: STK39 (% of control at 10 µM)), 100%; on panel of 442 kinases [5] (setting [16]), 100%; on panel of 442 kinases [6] (setting [16]), 100%. The remaining activity at 10 µM on panel of 442 kinases [7] (setting [16]) turned out to be 100%; on panel of 442 kinases [8] (10 µM, read-out: PRKCQ (% of control at 10 µM)), 100%; at panel of 442 kinases [9] (setting [16]), 100%; on panel of 442 kinases [10] (setting [16]) it was 100%; at panel of 442 kinases [11] (setting [16]), 74%; on panel of 442 kinases [12] (setting [16]), 100%. For the same compound, the remaining activity at 10 µM at panel of 442 kinases [13] (setting [16]) and at panel of 442 kinases [14] (setting [16]) was 100% throughout.
Usually inhibition stands for how much of the control response was suppressed. Read a high inhibition as a response far below the control. In the case of `Cn1c(=O)n(-c2ccc(C(C)(C)C#N)cc2)c2c3cc(-c4cnc5ccccc5c4)ccc3ncc21` [Dactolisib, 2-methyl-2-[4-(3-methyl-2-oxo-8-quinolin-3-yl-2,3-dihydroimidazo[4,5-c]quinolin-1-yl)-phenyl] propionitrile], the inhibition at 1 µM (at ERBB3 (1 μM); against PIK3C2B (1 μM); in assay [15] (1 μM)) was more than 80% throughout. The remaining binding at 1 µM at ERBB3 was 9.2%; at PIK3C2B it was 9.9%; in [15], 12%. Also, the remaining activity at 1 µM on panel of 442 kinases [1] turned out to be 100%; on panel of 442 kinases [3], 96%; on panel of 442 kinases [4], 100%; on panel of 442 kinases [6] it was 93%; on panel of 442 kinases [7] it was 81%; at panel of 442 kinases [8] it was 85%. The remaining activity at 1 µM at panel of 442 kinases [9] worked out at 97%; at panel of 442 kinases [10] it was 92%; at panel of 442 kinases [11], 76%; at panel of 442 kinases [12] it was 91%; on panel of 442 kinases [13], 92%; on panel of 442 kinases [14], 99%.
Turning to `FC(F)c1nc2ccccc2n1-c1nc(N2CCOCC2)nc(N2CCOCC2)n1` [ZSTK474, 2-(difluoromethyl)-1-[4,6-di(4-morpholinyl)-1,3,5-triazin-2-yl]-1H-benzimidazole], the remaining binding at 1 µM on ERBB3 was found to be 24%; at PIK3C2B it was 0.85%; in [15] it was 98%. Moreover, the “off-target binding to PIK3C2B” value at PIK3C2B (1 μM) was “high binding affinity”. The remaining activity at 1 µM at panel of 442 kinases [1] was 90%; on panel of 442 kinases [2], 99%; at panel of 442 kinases [3] it was 100%; at panel of 442 kinases [4] it was 95%; at panel of 442 kinases [5] it was 100%; on panel of 442 kinases [6] it was 100%. Besides, the remaining activity at 1 µM at panel of 442 kinases [7] is 89%; at panel of 442 kinases [8], 98%; on panel of 442 kinases [9], 96%; on panel of 442 kinases [10] it was 99%; at panel of 442 kinases [11], 68%; at panel of 442 kinases [12], 82%. The results for the remaining activity at 1 µM at panel of 442 kinases [13] and on panel of 442 kinases [14] were 100% and 95%, respectively.
For `CS(=O)(=O)N1CCN(Cc2cc3nc(-c4cccc5[nH]ncc45)nc(N4CCOCC4)c3s2)CC1` [Pictilisib, 2-(1H-indazol-4-yl)-6-(4-methanesulfonyl-piperazin-1-ylmethyl)-4-morpholin-4-yl-t hieno[3,2-d]pyrimidine], the results for the remaining binding at 1 µM (at ERBB3; at PIK3C2B; in [15]) were 100%, 54% and 100%, respectively. The figures for the remaining binding at 10 µM (at ERBB3; at PIK3C2B; in [15]) were 96%, 0.45% and 100%, respectively. Also, the “off-target activity against PIK3C2B” value on PIK3C2B (10 μM) was “active”.
Take `COc1ncc(-c2ccc3nccc(-c4ccnnc4)c3c2)cc1NS(=O)(=O)c1ccc(F)cc1F` [Omipalisib]: the remaining binding at 1 µM worked out at 95% on ERBB3, 0% at PIK3C2B and 100% in assay [15]. Also, the “off-target binding to PIK3C2B” value on PIK3C2B (1 μM) is recorded as “non-selective”. In addition, the remaining activity at 1 µM at panel of 442 kinases [1] was 73%; on panel of 442 kinases [2], 80%; at panel of 442 kinases [3], 100%; at panel of 442 kinases [4] it was 76%; on panel of 442 kinases [5], 100%; on panel of 442 kinases [6] it was 74%. The remaining activity at 1 µM at panel of 442 kinases [7] was determined as 98%; at panel of 442 kinases [8] it was 100%; at panel of 442 kinases [9], 100%; on panel of 442 kinases [10] it was 100%; on panel of 442 kinases [11], 91%; at panel of 442 kinases [12], 100%. Further, the remaining activity at 1 µM on panel of 442 kinases [13] and at panel of 442 kinases [14] was 100% each time.
